The nature of series [1]: Inhibition of mouse heart mitochondrial F0F1-ATP synthase hydrolytic activity incubated for 10 mins by microplate reader analysis. Format: mitochondria, Mitochondria.
Series [2] deals with H9c2. The series can be described thus: Induction of mitochondrial membrane potential loss in rat H9c2 cells assessed as increase in fluorescence intensity at 3 uM in presence of rotenone by TMRM dye based assay. Format: cell-based.
Series [3] concerns H9c2. The series can be described thus: Induction of mitochondrial membrane potential loss in rat H9c2 cells assessed as increase in fluorescence intensity at 3 uM by TMRM dye based assay. Format: cell-based.
Series [4] relates to H9c2. Briefly: Induction of mitochondrial membrane potential loss in rat H9c2 cells assessed as increase in fluorescence intensity at 10 uM in presence of rotenone by TMRM dye based assay. Format: cell-based.
Series [5] deals with H9c2. The series can be described thus: Induction of mitochondrial membrane potential loss in rat H9c2 cells assessed as increase in fluorescence intensity at 10 uM by TMRM dye based assay. Format: cell-based.
The species named for series [6] is Mus musculus. The series can be described thus: Inhibition of mouse heart mitochondrial F0F1-ATP synthase hydrolytic activity at 200 uM incubated for 10 mins by microplate reader analysis. Conditions: Mitochondria.
For series [7], the system named is H9c2. Briefly: Induction of mitochondrial membrane potential loss in rat H9c2 cells assessed as increase in fluorescence intensity at 100 uM in presence of rotenone by TMRM dye based assay. Format: cell-based.
Series [8] deals with H9c2. Briefly: Induction of mitochondrial membrane potential loss in rat H9c2 cells assessed as increase in fluorescence intensity at 50 uM in presence of rotenone by TMRM dye based assay. Format: cell-based.
The test system of series [9] is H9c2. The series can be described thus: Cytotoxicity against rat H9c2 cells assessed as reduction in cell viability at 100 uM incubated for 24 hrs by MTT assay. Format: toxicity, cell-based. Conditions: h9c2, 24 h. (Tetrazolium assays rely on reduction of a dye to a coloured formazan, in cell work by metabolically active cells.)
Series [10] relates to H9c2. Briefly: Induction of mitochondrial membrane potential loss in rat H9c2 cells assessed as increase in fluorescence intensity at 50 uM by TMRM dye based assay. Format: cell-based.
Series [11] relates to H9c2. Briefly: Cytotoxicity against rat H9c2 cells assessed as reduction in cell survival at 50 uM incubated for 24 hrs by MTT assay. Format: toxicity, cell-based. The note with it: h9c2, 24 h.
The species entered for series [12] is Mus musculus. The series can be described thus: Effect on mPTP opening in C57BL6 mouse heart mitochondria assessed as number of calcium pulses by measuring green-5N fluorescence intensity at 10 to 1000 uM by calcium retention capacity assay. Conditions: dose 10-1000 µM.
Series [13] is filed under the species Mus musculus. The series can be described thus: Effect on mPTP opening in C57BL6 mouse heart mitochondria assessed as number of calcium pulses by measuring green-5N fluorescence intensity at 10 to 1000 uM in presence of cyclosporin A by calcium retention capacity assay. Conditions: dose 10-1000 µM.
The test system of series [14] is Mus musculus. The series can be described thus: Cardioprotective activity against cardiac ischemia/reperfusion induced C57BL/6J mouse model assessed as reduction in cardiac infarct size at 3.5 mg/kg, iv prior to 5 mins of myocardial ischemia and 2 hrs of reperfusion (Rvb= 45.4 +/- 1.8 %). Format: functional. Details: scale not given: the % may be the effect or the level left. The note with it: time 125 min, 2.083 h.

The text below walks through data of ChEMBL document CHEMBL5390279, “Hydrolytic Activity of Mitochondrial F1FO-ATP Synthase as a Target for Myocardial Ischemia-Reperfusion Injury: Discovery and In Vitro and In Vivo Evaluation of Novel Inhibitors” (J Med Chem, 2023).

Each structure is given as a SMILES string. Activity calls are given as the source filed them. The calls are words filed in the database; no cut-off is given here.

As for `Oc1ccc(/C=C/c2cc(O)cc3c2[C@H](c2cc(O)cc(O)c2)[C@@H](c2ccc(O)cc2)O3)cc1`, the IC50 in [1] was determined as 756 µM.
Take `COc1cc2oc(-c3ccc(O)cc3O)c(C=O)c2c(O)c1CC=C(C)C`: the IC50 in series [1] came to 303 µM.
On to `CC[C@@H]1/C=C/C=C/C[C@H](C)[C@@H](O)[C@](C)(O)C(=O)[C@H](C)[C@@H](O)[C@H](C)C(=O)[C@H](C)[C@@H](O)[C@H](C)/C=C/C(=O)O[C@H]2[C@@H](C)[C@@H](CC1)O[C@@]1(CC[C@@H](C)[C@@H](C[C@H](C)O)O1)[C@@H]2C`, for which it took 18.5 µM to reach half-maximal inhibition in series [1] (IC50). Also, the outcome in the series with H9c2 [2] was Active. Also, the result with H9c2 [3], with H9c2 [4] and with H9c2 [5] was inactive.
In the case of `COc1ccc(Cn2nc(-c3cccc(F)c3)c3cc(Nc4ccc(N5CCN(C)CC5)cc4)nc(N4CCOCC4)c32)cc1`, in series [1], the IC50 came out at 1980 µM. Besides, in the series filed under Mus musculus [6], the inhibition entry was “Active”.
`Oc1ccc(/C=C/c2cc(O)cc(O)c2)cc1` [RESVERATROL] came in with an IC50 in series [1] of 65.6 µM.
In series [1], `COc1ccc(Cn2nc(-c3ccccc3)c3cc(Nc4ccc(N5CCN(C)CC5)cc4)nc(N4CCNCC4)c32)cc1` gave an IC50 of 107 µM. In addition, the result with H9c2 [7] and in the series with H9c2 [8] was Active. The outcome in the series on H9c2 [4], with H9c2 [10], in the series on H9c2 [5], in the series filed under Mus musculus [12] and in the series listed under Mus musculus [13] was inactive. For the same molecule, the Activity result in the series on H9c2 [9] is on record as “Toxic”; with H9c2 [11], “Non-Toxic”; in the series with Mus musculus [14], 33.4%.
Take `O=c1c(O)c(-c2ccc(O)c(O)c2)oc2cc(O)cc(O)c12` [QUERCETIN]: the IC50 in [1] came to 128 µM.

As a reminder, the IC50 is the midpoint of a concentration-inhibition curve.
